From PMC5285354, “Cationic Net Charge and Counter Ion Type as Antimicrobial Activity Determinant Factors of Short Lipopeptides” (Frontiers in Microbiology, 2017)
Values after ≈ are worked out from the molar mass of the structure shown. Where two headings read alike, the source gives them in different places. Where a SMILES comes first, the peptide text is derived from it. The star is where a group is joined. Decanoyl = CCCCCCCCCC(=O)*; Octanoyl = CCCCCCCC(=O)*

Assays:
Type in all cases: cell-based
[1] = test system: Aspergillus brasiliensis (ATCC 16404); details: ATCC 16404, 48 h
Description: (§1) The minimum inhibitory concentration (MIC), minimum bactericidal concentration (MBC) and minimum fungicidal concentration (MFC) were determined according to the procedure recommended by the Clinical Laboratory Standards Institute (CLSI). The following reference strains were tested: Gram-negative E. coli (ATCC 25922), K. pneumoniae (ATCC 700603), P. vulgaris (PCM 2668), P. aeruginosa (ATCC 9027), Gram-positive S. aureus (ATCC 25923), S. epidermidis (PCM 2118), B. subtilis (ATCC 6633), E. faecalis (ATCC 29212) and fungi C. albicans (ATCC 10231), C. tropicalis (PCM 2681), and A. brasiliensis (ATCC 16404). All the microorganisms were from the Polish Collection of Microorganisms (Wroclaw, Poland). MIC was determined using a microbroth dilution method with Mueller-Hinton (MH) broth for bacteria and Sabouraud Dextrose broth for fungi (Becton Dickinson, Le Pont de Claix, France). An initial inoculum of 10^5 cfu/mL was used for bacteria and 10^3 cfu/mL for fungi. Polypropylene 96-well plates (Kartell, Noviglio, Italy) were incubated for 18 h at 37°C for bacteria and for 48 h at 25°C for the tested fungi. MIC (μg/mL) was taken as the lowest concentration of the lipopeptide, at which the observable growth was inhibited. […] The experiments were performed in triplicate on three different days.

[2] = test system: Bacillus subtilis (ATCC 6633)
Description: as §1

[3] = test system: Candida albicans (ATCC 10231)
Description: as §1

[4] = test system: Candida tropicalis (PCM 2681); details: PCM 2681, 48 h
Description: as §1

[5] = test system: Enterococcus faecalis (ATCC 29212); details: ATCC 29212, TFA salt, triplicate; for MIC Enterococcus fecalis: Mueller-Hinton broth, 10^5 cfu/mL, 18 h 37°C; for MBC Enterococcus fecalis: subculture on Mueller-Hinton II Agar, 24 h 37°C
Description: as §1

[6] = test system: Escherichia coli (ATCC 25922); details: ATCC 25922, TFA salt, triplicate; for MIC Escherichia coli: Mueller-Hinton broth, 10^5 cfu/mL, 18 h 37°C; for MBC Escherichia coli: subculture on Mueller-Hinton II Agar, 24 h 37°C
Description: as §1

[7] = test system: Klebsiella pneumoniae (ATCC 700603); details: ATCC 700603, TFA salt, triplicate; for MIC Klebsiella pneumoniae: Mueller-Hinton broth, 10^5 cfu/mL, 18 h 37°C; for MBC Klebsiella pneumoniae: subculture on Mueller-Hinton II Agar, 24 h 37°C
Description: as §1

[8] = test system: Proteus vulgaris (PCM 2668); details: PCM 2668, TFA salt, triplicate; for MIC Proteus vulgaris: Mueller-Hinton broth, 10^5 cfu/mL, 18 h 37°C; for MBC Proteus vulgaris: subculture on Mueller-Hinton II Agar, 24 h 37°C
Description: as §1

[9] = test system: Pseudomonas aeruginosa (ATCC 9027); details: ATCC 9027, TFA salt, triplicate; for MIC Pseudomonas aeruginosa: Mueller-Hinton broth, 10^5 cfu/mL, 18 h 37°C; for MBC Pseudomonas aeruginosa: subculture on Mueller-Hinton II Agar, 24 h 37°C
Description: as §1

[10] = test system: Staphylococcus aureus (ATCC 25923); details: ATCC 25923, TFA salt; for MBC Staphylococcus aureus: MIC wells subcultured on Mueller-Hinton II Agar, 24 h 37°C, triplicate; for MIC Staphylococcus aureus: Mueller-Hinton broth, 10^5 cfu/mL, 18 h 37°C, triplicate on three days
Description: as §1

[11] = test system: Staphylococcus epidermidis (PCM 2118)
Description: as §1

CCCCCCCC(=O)N[C@@H](CCCCN)C(=O)NCC(=O)N[C@@H](CCCCN)C(N)=O [C8-KGK-NH2] (Octanoyl-Lys-Gly-Lys-NH2)
MFC Aspergillus brasiliensis [1]: 2000 µg/mL (≈ 4.38 mM) | MIC Aspergillus brasiliensis [1]: 2000 µg/mL (≈ 4.38 mM) | MIC Bacillus subtillis ([2]; ATCC 6633, 18 h): 512 µg/mL (≈ 1.12 mM) | MBC Bacillus subtillis ([2]; ATCC 6633, 24 h): 1000 µg/mL (≈ 2.19 mM) | MFC Candida albicans ([3]; ATCC 10231, 48 h): 2000 µg/mL (≈ 4.38 mM) | MIC Candida albicans ([3]; ATCC 10231, 48 h): 2000 µg/mL (≈ 4.38 mM) | MFC Candida tropicalis [4]: 2000 µg/mL (≈ 4.38 mM) | MIC Candida tropicalis [4]: 2000 µg/mL (≈ 4.38 mM) | MIC Enterococcus fecalis [5]: >2000 µg/mL | MBC Enterococcus fecalis [5]: >2000 µg/mL | MIC Escherichia coli [6]: >2000 µg/mL | MBC Escherichia coli [6]: >2000 µg/mL | MIC Klebsiella pneumoniae [7]: >2000 µg/mL | MBC Klebsiella pneumoniae [7]: >2000 µg/mL | MIC Proteus vulgaris [8]: >2000 µg/mL | MBC Proteus vulgaris [8]: >2000 µg/mL | MIC Pseudomonas aeruginosa [9]: >2000 µg/mL | MBC Pseudomonas aeruginosa [9]: >2000 µg/mL | MBC Staphylococcus aureus [10]: >2000 µg/mL | MIC Staphylococcus aureus [10]: >2000 µg/mL | MIC Staphylococcus epidermidis ([11]; PCM 2118, 18 h): 256 µg/mL (≈ 0.561 mM) | MBC Staphylococcus epidermidis ([11]; PCM 2118, 24 h): 1000 µg/mL (≈ 2.19 mM)

CCCCCCCC(=O)N[C@@H](CCCCN)C(=O)N[C@@H](CCCCN)C(=O)N[C@@H](CCCCN)C(N)=O [C8-KKK-NH2]
MFC Aspergillus brasiliensis [1]: 2000 µg/mL (≈ 3.79 mM) | MIC Aspergillus brasiliensis [1]: 2000 µg/mL (≈ 3.79 mM) | MIC Bacillus subtillis ([2]; ATCC 6633, 18 h): 1000 µg/mL (≈ 1.89 mM) | MBC Bacillus subtillis ([2]; ATCC 6633, 24 h): 1000 µg/mL (≈ 1.89 mM) | MFC Candida albicans ([3]; ATCC 10231, 48 h): 2000 µg/mL (≈ 3.79 mM) | MIC Candida albicans ([3]; ATCC 10231, 48 h): 2000 µg/mL (≈ 3.79 mM) | MFC Candida tropicalis [4]: 2000 µg/mL (≈ 3.79 mM) | MIC Candida tropicalis [4]: 2000 µg/mL (≈ 3.79 mM) | MIC Enterococcus fecalis [5]: >2000 µg/mL | MBC Enterococcus fecalis [5]: >2000 µg/mL | MIC Escherichia coli [6]: >2000 µg/mL | MBC Escherichia coli [6]: >2000 µg/mL | MIC Klebsiella pneumoniae [7]: >2000 µg/mL | MBC Klebsiella pneumoniae [7]: >2000 µg/mL | MIC Proteus vulgaris [8]: >2000 µg/mL | MBC Proteus vulgaris [8]: >2000 µg/mL | MIC Pseudomonas aeruginosa [9]: >2000 µg/mL | MBC Pseudomonas aeruginosa [9]: >2000 µg/mL | MBC Staphylococcus aureus [10]: >2000 µg/mL | MIC Staphylococcus aureus [10]: >2000 µg/mL | MIC Staphylococcus epidermidis ([11]; PCM 2118, 18 h): 256 µg/mL (≈ 0.485 mM) | MBC Staphylococcus epidermidis ([11]; PCM 2118, 24 h): 512 µg/mL (≈ 0.97 mM)

CCCCCCCCCC(=O)N[C@@H](CCCCN)C(=O)N[C@@H](CCCCN)C(=O)N[C@@H](CCCCN)C(N)=O [C10-KKK-NH2]
MFC Aspergillus brasiliensis [1]: 2000 µg/mL (≈ 3.6 mM) | MIC Aspergillus brasiliensis [1]: 1000 µg/mL (≈ 1.8 mM) | MIC Bacillus subtillis ([2]; ATCC 6633, 18 h): 128 µg/mL (≈ 0.23 mM) | MBC Bacillus subtillis ([2]; ATCC 6633, 24 h): 256 µg/mL (≈ 0.461 mM) | MFC Candida albicans ([3]; ATCC 10231, 48 h): 2000 µg/mL (≈ 3.6 mM) | MIC Candida albicans ([3]; ATCC 10231, 48 h): 2000 µg/mL (≈ 3.6 mM) | MFC Candida tropicalis [4]: 2000 µg/mL (≈ 3.6 mM) | MIC Candida tropicalis [4]: 2000 µg/mL (≈ 3.6 mM) | MIC Enterococcus fecalis [5]: >2000 µg/mL | MBC Enterococcus fecalis [5]: >2000 µg/mL | MIC Escherichia coli [6]: >2000 µg/mL | MBC Escherichia coli [6]: >2000 µg/mL | MIC Klebsiella pneumoniae [7]: >2000 µg/mL | MBC Klebsiella pneumoniae [7]: >2000 µg/mL | MIC Proteus vulgaris [8]: >2000 µg/mL | MBC Proteus vulgaris [8]: >2000 µg/mL | MIC Pseudomonas aeruginosa [9]: >2000 µg/mL | MBC Pseudomonas aeruginosa [9]: >2000 µg/mL | MBC Staphylococcus aureus [10]: >2000 µg/mL | MIC Staphylococcus aureus [10]: >2000 µg/mL | MIC Staphylococcus epidermidis ([11]; PCM 2118, 18 h): 128 µg/mL (≈ 0.23 mM) | MBC Staphylococcus epidermidis ([11]; PCM 2118, 24 h): 256 µg/mL (≈ 0.461 mM)

CCCCCCCCCC(=O)N[C@@H](CCCCN)C(=O)N[C@@H](CCCCN)C(=O)N[C@@H](CCCCN)C(=O)N[C@@H](CCCCN)C(N)=O [C10-KKKK-NH2] (Decanoyl-KKKK-NH2)
MFC Aspergillus brasiliensis [1]: 2000 µg/mL (≈ 2.92 mM) | MIC Aspergillus brasiliensis [1]: 2000 µg/mL (≈ 2.92 mM) | MIC Bacillus subtillis ([2]; ATCC 6633, 18 h): 128 µg/mL (≈ 0.187 mM) | MBC Bacillus subtillis ([2]; ATCC 6633, 24 h): 128 µg/mL (≈ 0.187 mM) | MIC Candida albicans ([3]; ATCC 10231, TFA salt, Sabouraud Dextrose broth, 10^3 cfu/mL, 48 h 25°C, triplicate): >2000 µg/mL | MFC Candida albicans ([3]; ATCC 10231, TFA salt, subculture on Sabouraud 2% Glucose Agar, 48 h 25°C, triplicate): >2000 µg/mL | MFC Candida tropicalis [4]: 2000 µg/mL (≈ 2.92 mM) | MIC Candida tropicalis [4]: 2000 µg/mL (≈ 2.92 mM) | MIC Enterococcus fecalis [5]: >2000 µg/mL | MBC Enterococcus fecalis [5]: >2000 µg/mL | MIC Escherichia coli [6]: >2000 µg/mL | MBC Escherichia coli [6]: >2000 µg/mL | MIC Klebsiella pneumoniae [7]: >2000 µg/mL | MBC Klebsiella pneumoniae [7]: >2000 µg/mL | MIC Proteus vulgaris [8]: >2000 µg/mL | MBC Proteus vulgaris [8]: >2000 µg/mL | MIC Pseudomonas aeruginosa [9]: >2000 µg/mL | MBC Pseudomonas aeruginosa [9]: >2000 µg/mL | MBC Staphylococcus aureus [10]: >2000 µg/mL | MIC Staphylococcus aureus [10]: >2000 µg/mL | MIC Staphylococcus epidermidis ([11]; PCM 2118, 18 h): 64 µg/mL (≈ 0.0936 mM) | MBC Staphylococcus epidermidis ([11]; PCM 2118, 24 h): 128 µg/mL (≈ 0.187 mM)

CCCCCCCC(=O)N[C@@H](CCCCN)C(=O)NCC(N)=O [C8-KG-NH2] (Octanoyl-Lys-Gly-NH2)
MFC Aspergillus brasiliensis [1]: 2000 µg/mL (≈ 6.09 mM) | MIC Aspergillus brasiliensis [1]: 2000 µg/mL (≈ 6.09 mM) | MIC Bacillus subtillis ([2]; ATCC 6633, TFA salt, Mueller-Hinton broth, 10^5 cfu/mL, 18 h 37°C, triplicate): >2000 µg/mL | MBC Bacillus subtillis ([2]; ATCC 6633, TFA salt, subculture on Mueller-Hinton II Agar, 24 h 37°C, triplicate): >2000 µg/mL | MFC Candida albicans ([3]; ATCC 10231, 48 h): 2000 µg/mL (≈ 6.09 mM) | MIC Candida albicans ([3]; ATCC 10231, 48 h): 2000 µg/mL (≈ 6.09 mM) | MFC Candida tropicalis [4]: 2000 µg/mL (≈ 6.09 mM) | MIC Candida tropicalis [4]: 2000 µg/mL (≈ 6.09 mM) | MIC Enterococcus fecalis [5]: >2000 µg/mL | MBC Enterococcus fecalis [5]: >2000 µg/mL | MIC Escherichia coli [6]: >2000 µg/mL | MBC Escherichia coli [6]: >2000 µg/mL | MIC Klebsiella pneumoniae [7]: >2000 µg/mL | MBC Klebsiella pneumoniae [7]: >2000 µg/mL | MIC Proteus vulgaris [8]: >2000 µg/mL | MBC Proteus vulgaris [8]: >2000 µg/mL | MIC Pseudomonas aeruginosa [9]: >2000 µg/mL | MBC Pseudomonas aeruginosa [9]: >2000 µg/mL | MBC Staphylococcus aureus [10]: >2000 µg/mL | MIC Staphylococcus aureus [10]: >2000 µg/mL | MIC Staphylococcus epidermidis ([11]; PCM 2118, TFA salt, Mueller-Hinton broth, 10^5 cfu/mL, 18 h 37°C, triplicate): >2000 µg/mL | MBC Staphylococcus epidermidis ([11]; PCM 2118, TFA salt, subculture on Mueller-Hinton II Agar, 24 h 37°C, triplicate): >2000 µg/mL
